# From PMC10714399, “Open Source Antibiotics: Simple Diarylimidazoles Are Potent against Methicillin-Resistant Staphylococcus aureus” (ACS Infectious Diseases, 2023)
# “And” between values parts separate entries of the source, which are not always exact repeats. Equal values may be shown once.
# System: Staphylococcus aureus NCTC 13373 (mecA-positive; methicillin-resistant)
# Test: In vitro antibacterial activity, MIC (UCL School of Pharmacy assay), MRSA
# Format: cell-based
# Conditions: not given
# How it was run: (§1)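 Each organism was taken from overnight tryptone soya agar, suspended in PBS at A600 0.1, diluted 1:100 in isosensitest broth and added to serially diluted compound (32 to 0.03 μg/mL).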
MRSA MIC,Compound,"activity against MRSA, in words"
> 32 µg/mL and 32 µg/mL,NC(=O)c1ccc(-n2c(-c3ccccn3)nc3ccccc32)cc1 [compound 989],–
> 32 µg/mL and 32 µg/mL,N#Cc1ccc(-n2c(-c3ccccn3)nc3ccccc32)cc1 [compound 990],–
> 32 µg/mL and 32 µg/mL,c1ccc(-n2c(-c3ccccn3)nc3ccccc32)cc1 [compound 992],–

# The remaining lines, values behind:
Compound,MRSA MIC,"activity against MRSA, in words"
Clc1ccn2c(-c3ccc4occc4c3)c(-c3ccccn3)nc2c1 [compound 985],8 µg/mL,–
Fc1ccc(-c2c(-c3ccccn3)nc3ccccn23)cn1 [compound 986],–,inactive
c1ccc(Cn2c(-c3ccccn3)nc3ccccc32)cc1 [compound 993],> 32 µg/mL and 32 µg/mL,–

# Same assay, conditions: Staphylococcus aureus; read-out: MRSA MIC
row,MIC [µg/mL],Compound
1,> 32,Fc1ccc(-c2c(-c3ccccn3)nc3ccccn23)cn1 [compound 986]

# System: S. aureus ATCC 25923 (methicillin-susceptible)
# Test: In vitro antibacterial activity, MIC (UCL), MSSA
# Format: cell-based, Staphylococcus aureus
# Conditions: not given
# How it was run: as §1
row,MSSA MIC [µg/mL],Compound
1,> 32,NC(=O)c1ccc(-n2c(-c3ccccn3)nc3ccccc32)cc1 [compound 989]
2,> 32,N#Cc1ccc(-n2c(-c3ccccn3)nc3ccccc32)cc1 [compound 990]
3,> 32,c1ccc(-n2c(-c3ccccn3)nc3ccccc32)cc1 [compound 992]

# Second part, the compound before the results:
row,Compound,MSSA MIC [µg/mL]
1,Clc1ccn2c(-c3ccc4occc4c3)c(-c3ccccn3)nc2c1 [compound 985],8
2,c1ccc(Cn2c(-c3ccccn3)nc3ccccc32)cc1 [compound 993],> 32

# Same assay, conditions: Staphylococcus aureus; read-out: MSSA MIC
row,MIC [µg/mL],Compound
1,> 32,Fc1ccc(-c2c(-c3ccccn3)nc3ccccn23)cn1 [compound 986]

# System: Enterococcus faecalis ATCC 51299 (vanA-positive; vancomycin-resistant)
# Test: In vitro antibacterial activity, MIC (UCL), VRE
# Format: cell-based
# Conditions: not given
# Description: Staphylococcus aureus NCTC 13373 (mecA-positive; methicillin-resistant, NCTC 13373) was supplied by the National Collection of Type Cultures (NCTC), Public Health England, United Kingdom. Other organisms, S. aureus ATCC 25923 (methicillin-susceptible) and Enterococcus faecalis ATCC 51299 (vanA-positive; vancomycin-resistant), were obtained from the American Type Culture Collection (ATCC) via LGC Standards, UK. A suspension of each organism was prepared from an overnight plate culture (tryptone soya agar) in phosphate-buffered saline (PBS) and adjusted to an absorbance reading at 600 nm of 0.1, which is approximately equivalent to 1 × 10^8 colony-forming units (CFU) per mL. The cultures were further diluted 1:100 in isosensitest broth (Oxoid, United Kingdom) before 100 μL was used to inoculate each well of a 96-well plate that contained diluted samples of the OSA series. Compounds were evaluated over a 2-fold dilution range from 32 to 0.03 μg/mL. Stocks of the samples were prepared in 100% DMSO at […] before being diluted in isosenstitest broth. The highest concentration of DMSO present was 2%, which has been previously shown not to inhibit the growth of the microorganisms (data not shown). […] Vancomycin was used as a quality control compound.
row,VRE MIC [µg/mL],Compound
1,> 32,NC(=O)c1ccc(-n2c(-c3ccccn3)nc3ccccc32)cc1 [compound 989]
2,> 32,N#Cc1ccc(-n2c(-c3ccccn3)nc3ccccc32)cc1 [compound 990]
3,> 32,c1ccc(-n2c(-c3ccccn3)nc3ccccc32)cc1 [compound 992]

# Second part, the compound before the results:
row,Compound,VRE MIC [µg/mL]
1,Clc1ccn2c(-c3ccc4occc4c3)c(-c3ccccn3)nc2c1 [compound 985],16
2,c1ccc(Cn2c(-c3ccccn3)nc3ccccc32)cc1 [compound 993],> 32

# Same assay, conditions: read-out: VRE MIC
row,MIC [µg/mL],Compound
1,> 32,Fc1ccc(-c2c(-c3ccccn3)nc3ccccn23)cn1 [compound 986]

# System: VSE
# Test: In vitro antibacterial activity, MIC, VSE
# Format: cell-based
# Conditions: not given
row,VSE MIC [µg/mL],Compound
1,> 32,NC(=O)c1ccc(-n2c(-c3ccccn3)nc3ccccc32)cc1 [compound 989]
2,> 32,N#Cc1ccc(-n2c(-c3ccccn3)nc3ccccc32)cc1 [compound 990]
3,> 32,c1ccc(-n2c(-c3ccccn3)nc3ccccc32)cc1 [compound 992]

# More lines, now with the values behind:
row,Compound,VSE MIC [µg/mL]
1,Clc1ccn2c(-c3ccc4occc4c3)c(-c3ccccn3)nc2c1 [compound 985],16
2,c1ccc(Cn2c(-c3ccccn3)nc3ccccc32)cc1 [compound 993],> 32

# Same assay, conditions: read-out: VSE MIC
row,MIC [µg/mL],Compound
1,> 32,Fc1ccc(-c2c(-c3ccccn3)nc3ccccn23)cn1 [compound 986]

# System: MRC-5SV2 (human lung fibroblast cell line)
# Test: Toxicity against MRC-5SV2
# Format: cell-based
# Conditions: not given
# Description: (§2) ADME and toxicity for compounds were measured according to procedures outlined in the manuscript submitted in parallel to this one;2 other procedures were used for those compounds analysed by Monash University (in vitro ADME) or UCL (toxicity), both described in the main
row,Compound,MRC5 TC50 [µg/mL]
1,NC(=O)c1ccc(-n2c(-c3ccccn3)nc3ccccc32)cc1 [compound 989],20.1
2,N#Cc1ccc(-n2c(-c3ccccn3)nc3ccccc32)cc1 [compound 990],19.0
3,c1ccc(-n2c(-c3ccccn3)nc3ccccc32)cc1 [compound 992],17.4
4,c1ccc(Cn2c(-c3ccccn3)nc3ccccc32)cc1 [compound 993],18.3

# System: PMM (primary mouse macrophages)
# Test: Toxicity against PMM
# Format: cell-based
# Conditions: not given
# Description: as §2
row,Compound,PMM TC50 [µg/mL]
1,NC(=O)c1ccc(-n2c(-c3ccccn3)nc3ccccc32)cc1 [compound 989],20.1
2,N#Cc1ccc(-n2c(-c3ccccn3)nc3ccccc32)cc1 [compound 990],19.0
3,c1ccc(-n2c(-c3ccccn3)nc3ccccc32)cc1 [compound 992],17.4
4,c1ccc(Cn2c(-c3ccccn3)nc3ccccc32)cc1 [compound 993],18.3
